Measurements reported in paper PMC6268140, “Absorption and Interaction of the Main Constituents from the Traditional Chinese Drug Pair Shaoyao-Gancao via a Caco-2 Cell Monolayer Model” (Molecules, 2012).

Legend:
[1] = test system: Caco-2 cell monolayers; test: Transport across Caco-2 cell monolayers (A-B and B-A directions); details: mixture of Shaoyao-Gancao extract vs. Gancao extract; 22 μM
Description: (§1) Cells were cultured in a humidified atmosphere of 5% CO2 and 95% air at 37 °C. The Dulbecco’s modified Eagle’s medium was supplemented with 10% (v/v) fetal bovine serum, 1% nonessential amino acids, 100 U/mL penicillin, and 100 µg/mL streptomycin. When the cell culture reached 80% confluence, it was rinsed with phosphate-buffered saline and split using trypsin. For transport experiments, the cells were seeded on 3 μm porous polycarbonate cell culture inserts from Nunc, which has a surface area of 4.2 cm^2 at a density of 2,500,000 cells/cm^2. The culture media was replaced every other day. The monolayers were ready for experiments from 19 to 22 days after seeding. Well-developed Caco-2 cell monolayers with transepithelial electrical resistance (TEER) values greater than 400 Ω × cm^2 were used for the experiment.
(§2) Paeoniflorin, glycyrrhizic acid, and liquiritin were dissolved in dimethyl sulfoxide (DMSO)-ethanol (v/v = 1/1) to prepare the stock solution (10 mM) for each single compound. The above-mentioned solutions were further diluted with Hank’s balanced salt solution (HBSS, pH = 7.4) to obtain a series of working standard solutions, and the final concentrations of paeoniflorin, glycyrrhizic acid, or liquiritin in the transport samples were 50 µM, 20 µM, or 50 µM, respectively. Moreover, the final concentrations of the organic solvent of different samples were controlled below 0.5% to ensure the safety to the cells.
(§3) Dry Shaoyao (100 g) or Gancao (100 g) herb materials were extracted twice with boiling water for 1 h each time, and the solutions were filtered through gauze. Then, the filtrates were merged and concentrated to 100 mL as the Shaoyao extract (1 g/mL) containing paeoniflorin (22.41 mg/mL) or Gancao extract (1 g/mL) containing glycyrrhizic acid (16.35 mg/mL) and liquiritin (22.38 mg/mL). Subsequently, the single extract or mixed extract was dissolved in HBSS (pH = 7.4) to obtain a series of working standard solutions, and the final concentrations of paeoniflorin, glycyrrhizic acid, or liquiritin in the transport samples were 50 µM, 22 µM, or 54 µM, respectively. In addition, the ratio of Shaoyao and Gancao in the mixed extract was 1:1. Meanwhile, testosterone (internal standard) was dissolved in acetonitrile with acetic acid (v/v = 94/6) to 100 µM. In addition, verapamil was dissolved in water to 5 mM when it was used.
(§4) The cell monolayers were washed three times with 37 °C HBSS (pH 7.4). The monolayers were incubated with the buffer for 1 h, and the incubation medium was then aspirated. Afterwards, a single component or extract solution was loaded on the apical or basolateral side. When the transport inhibitor (verapamil) was used, it was loaded only at the donor side. The amounts of transported drugs in the receiver media were determined by ultra-performance liquid chromatography (UPLC). In the test for each solution, four donor samples (400 μL) and four receiver samples (400 μL) were taken at time intervals of 1, 2, 3, and 4 h, followed by an immediate replacement with fresh donor solution (400 μL) to the donor side or fresh buffer (400 μL) to the receiver side.
(§5) To each transport sample (400 μL), 100 μL of acetonitrile containing 100 μM of testosterone was added as an internal standard and a preservative. The resulting mixture was vortexed for 30 s and then centrifuged at 15,000 rpm for 15 min, and the supernatant obtained was analyzed by UPLC.
(§6) UPLC was used to determine the concentration of the compounds in the transport samples.

[2] = as above; details: human; for Papp A→B at 4 h: Caco-2, pH 7.4; for efflux ratio at 4 h: Caco-2, pH 7.4, Efflux ratio PBA/PAB; for Papp at 4 h: mean ± SD, n = 3
Description: as §1, §2, §3, §4, §5, §6

[3] = target: P-glycoprotein (P-gp) (Homo sapiens, UniProt P08183); details: Caco-2, 4 h, 50 µM, pH 7.4
From the text: To determine whether P-gp is involved in the transport of these compounds, their transports were studied in the presence of verapamil, a known inhibitor for P-gp.
All data were presented as means ± SD. […] Results were considered significant at p < 0.05.

[4] = single component solution, paeoniflorin 50 μM, glycyrrhizic acid 20 μM, liquiritin 50 μM
[5] = Caco-2, pH 7.4, Papp PAB, in the mixture of Shaoyao-Gancao extract (1:1), paeoniflorin 50 μM, glycyrrhizic acid 22 μM, liquiritin 54 μM
[6] = Caco-2, pH 7.4, Papp PAB, paeoniflorin in Shaoyao extract (50 μM), glycyrrhizic acid (22 μM) and liquiritin (54 μM) in Gancao extract
[7] = Caco-2, pH 7.4, Papp PBA (secretary permeability), single component solution, paeoniflorin 50 μM, glycyrrhizic acid 20 μM, liquiritin 50 μM, HBSS pH 7.4
[8] = Caco-2, pH 7.4, Papp PBA, in the mixture of Shaoyao-Gancao extract (1:1), paeoniflorin 50 μM, glycyrrhizic acid 22 μM, liquiritin 54 μM
[9] = Caco-2, pH 7.4, Papp PBA, paeoniflorin in Shaoyao extract (50 μM), glycyrrhizic acid (22 μM) and liquiritin (54 μM) in Gancao extract

Sequence of P-glycoprotein (P-gp) (P08183 whole entry): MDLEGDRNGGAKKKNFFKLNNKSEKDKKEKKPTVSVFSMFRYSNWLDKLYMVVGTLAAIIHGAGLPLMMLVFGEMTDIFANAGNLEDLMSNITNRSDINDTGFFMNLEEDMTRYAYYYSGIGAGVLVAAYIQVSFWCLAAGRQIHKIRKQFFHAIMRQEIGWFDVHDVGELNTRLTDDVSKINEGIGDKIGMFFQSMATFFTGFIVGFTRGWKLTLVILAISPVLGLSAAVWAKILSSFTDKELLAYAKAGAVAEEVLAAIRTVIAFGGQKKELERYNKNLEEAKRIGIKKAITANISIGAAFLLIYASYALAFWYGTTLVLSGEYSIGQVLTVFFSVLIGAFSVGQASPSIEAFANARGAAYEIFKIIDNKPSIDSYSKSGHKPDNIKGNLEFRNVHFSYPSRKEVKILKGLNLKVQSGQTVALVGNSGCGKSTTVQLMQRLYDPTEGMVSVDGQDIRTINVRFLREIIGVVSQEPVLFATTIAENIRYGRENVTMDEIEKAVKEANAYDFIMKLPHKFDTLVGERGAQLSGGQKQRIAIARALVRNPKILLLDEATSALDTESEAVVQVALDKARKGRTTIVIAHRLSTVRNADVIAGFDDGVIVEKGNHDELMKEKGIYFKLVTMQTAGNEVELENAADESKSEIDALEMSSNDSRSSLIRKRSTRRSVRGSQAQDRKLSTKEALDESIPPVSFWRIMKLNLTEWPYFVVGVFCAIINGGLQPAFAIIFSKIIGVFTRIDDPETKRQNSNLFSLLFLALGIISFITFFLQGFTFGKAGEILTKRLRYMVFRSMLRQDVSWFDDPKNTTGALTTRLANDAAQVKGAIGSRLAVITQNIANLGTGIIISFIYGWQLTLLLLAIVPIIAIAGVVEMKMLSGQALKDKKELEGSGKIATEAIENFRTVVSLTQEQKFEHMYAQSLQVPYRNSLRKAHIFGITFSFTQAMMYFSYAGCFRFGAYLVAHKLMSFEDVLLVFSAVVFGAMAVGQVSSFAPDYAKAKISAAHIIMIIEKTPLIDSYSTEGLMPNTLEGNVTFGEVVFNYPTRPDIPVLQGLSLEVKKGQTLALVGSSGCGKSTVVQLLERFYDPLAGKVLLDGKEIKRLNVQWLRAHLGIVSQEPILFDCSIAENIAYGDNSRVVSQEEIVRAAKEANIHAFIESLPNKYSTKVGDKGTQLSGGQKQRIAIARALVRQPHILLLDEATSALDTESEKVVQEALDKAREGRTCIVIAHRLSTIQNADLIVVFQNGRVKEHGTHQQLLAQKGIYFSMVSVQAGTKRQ

Increase of PAB in the mixture compared to PAB in the Gancao extract [1]	Papp A→B at 4 h [2]	efflux ratio at 4 h, 22 µM ([2]; Caco-2, pH 7.4, Decrease of efflux ratio in the mixture compared to the Gancao extract, mixture of Shaoyao-Gancao extract vs. Gancao extract, 22 μM)	efflux ratio at 4 h [2, 4]	Papp at 4 h [2, 5]	Papp at 4 h [2, 6]	Papp at 4 h [2, 7]	Papp at 4 h [2, 8]	Papp at 4 h [2, 9]	Decrease in the efflux ratio after addition of verapamil [3]	SMILES
over two times	0.36 ± 0.04 ×10⁻⁶ cm/s	> 1	2.31	1.17 ± 0.08 ×10⁻⁶ cm/s	0.41 ± 0.05 ×10⁻⁶ cm/s	0.83 ± 0.07 ×10⁻⁶ cm/s	1.21 ± 0.06 ×10⁻⁶ cm/s	0.89 ± 0.04 ×10⁻⁶ cm/s		CC1(C)[C@@H](O[C@H]2O[C@H](C(=O)O)[C@@H](O)[C@H](O)[C@H]2O[C@@H]2O[C@H](C(=O)O)[C@@H](O)[C@H](O)[C@H]2O)CC[C@]2(C)[C@H]3C(=O)C=C4[C@@H]5C[C@@](C)(C(=O)O)CC[C@]5(C)CC[C@@]4(C)[C@]3(C)CC[C@@H]12 [Glycyrrhizic acid]
	0.61 ± 0.09 ×10⁻⁶ cm/s		2.1	1.96 ± 0.08 ×10⁻⁶ cm/s	0.94 ± 0.11 ×10⁻⁶ cm/s	1.28 ± 0.05 ×10⁻⁶ cm/s	1.77 ± 0.07 ×10⁻⁶ cm/s	1.3 ± 0.02 ×10⁻⁶ cm/s	54.29%	C[C@@]12C[C@@]3(O)O[C@@H](O1)[C@]1(COC(=O)c4ccccc4)[C@H]3C[C@@]12O[C@@H]1O[C@H](CO)[C@@H](O)[C@H](O)[C@H]1O [Paeoniflorin]
	0.73 ± 0.04 ×10⁻⁶ cm/s		2.15	1.31 ± 0.06 ×10⁻⁶ cm/s	1.2 ± 0.06 ×10⁻⁶ cm/s	1.57 ± 0.05 ×10⁻⁶ cm/s	1.58 ± 0.04 ×10⁻⁶ cm/s	1.59 ± 0.02 ×10⁻⁶ cm/s	60.47%	O=C1C[C@@H](c2ccc(O[C@@H]3O[C@H](CO)[C@@H](O)[C@H](O)[C@H]3O)cc2)Oc2cc(O)ccc21 [Liquiritin]
